Source: patent US20070196763A1, “Method of forming laminated resist” (DAIKIN INDUSTRIES, LTD., priority 2003, published 2007)
Where “and” joins values, the source holds several entries; their conditions need not be identical. Equal values may be shown once.

What was measured:
[1] = Determination of pKa value of monomer having hydrophilic group by NaOH titration
Description: In a water/acetone mixture (10/15 ml) solution was poured 0.7865 g of CH2═CHCH2C(CF3)2OH, followed by stirring at room temperature. After it was confirmed that the solution was homogeneous, titration was carried out with about 0.2 mol/L NaOH solution. A titration curve was obtained by adding the NaOH solution dropwise in increments of 0.15 ml and recording a pH value at every addition. An equivalence point was determined by an inflection point (maximum differential value of titration curve=dpH/dml) of the titration curve.

[2] = water/acetone mixture, pKa, monomer having hydrophilic group used in the Preparation Example, corrected
[3] = monomer having hydrophilic group used in the Preparation Example, NaOH titration in water/acetone, corrected

Row | SMILES | pKa [1, 2] | pKa [1, 3] | also measured
1 | O=C(O)/C=C\C(=O)O [Maleic acid] | 1.4 |  | 
2 | C=C(F)C(F)(F)OC(F)(C(=O)O)C(F)(F)F (centres unmarked) [perfluoro-(6,6-dihydro-2-trifluoromethyl-3-oxa-5-hexenoic acid)] |  |  | pKa (physchem): 3.4
3 | C=C(C(=O)O)C(F)(F)F [2-(trifluoromethyl)acrylic acid] | 3.9 |  | 
4 | C=CCC(O)(C(F)(F)F)C(F)(F)F [CH2═CHCH2C(CF3)2OH, 1,1-bistrifluoromethyl-3-buten-1-ol] | 9.6 |  | pKa value (single titration) ([1]; NaOH titration in water/acetone, pH at half equivalence point minus blank difference): 9.64 and 9.54; pKa ([1]; water/acetone mixture, pKa value (decided from experiments carried out three times), NaOH titration in water/acetone): 9.6; pKa ([1]; water/acetone mixture, pKa value (single titration), NaOH titration in water/acetone, pH at half equivalence point minus blank difference): 9.69
5 | C=C(F)C(F)(F)OC(F)(C(F)(F)F)C(F)(F)OC(F)(C(=O)O)C(F)(F)F (centres unmarked) [perfluoro-(9,9-dihydro-2,5-bistrifluoromethyl-3,6-dioxa-8-nonenoic acid)] |  | 3.6 | 

Second part, led by results:

Row | pKa [1, 2] | pKa [1, 3] | SMILES | also measured
6 |  | 3.8 | C=C(F)C(F)(F)OC(F)(C(F)(F)F)C(F)(F)OC(F)(C(F)(F)F)C(F)(F)OC(F)(C(=O)O)C(F)(F)F (centres unmarked) [perfluoro-(12,12-dihydro-2,5,8-tristrifluoromethyl-3,6,9-trioxa-11-dodecenic acid)] | 
7 |  | 4.0 | C=C(F)C(F)(F)OC(F)(C(F)(F)F)C(F)(F)OC(F)(C(F)(F)F)C(F)(F)OC(F)(C(F)(F)F)C(F)(F)OC(F)(C(=O)O)C(F)(F)F (centres unmarked) [perfluoro-(15,15-dihydro-2,5,8,11-tetrakistrifluoromethyl-3,6,9,12-tetraoxa-14-pentadecenic acid)] | 
8 |  | 12.6 | C=C(F)C(F)(F)OC(F)(C(F)(F)F)C(F)(F)OC(F)(CO)C(F)(F)F (centres unmarked) [(1,1,9,9-tetrahydro-2,5-bistrifluoromethyl-3,6-dioxa-8-nonenol)] | 
